The values below come from ChEMBL document CHEMBL5291721, “A preclinical secondary pharmacology resource illuminates target-adverse drug reaction associations of marketed drugs” (Nat Commun, 2023).

Experiment [1] addresses T1, Alpha-2A adrenergic receptor (Homo sapiens, UniProt P08913).
T1 sequence (P08913 whole entry): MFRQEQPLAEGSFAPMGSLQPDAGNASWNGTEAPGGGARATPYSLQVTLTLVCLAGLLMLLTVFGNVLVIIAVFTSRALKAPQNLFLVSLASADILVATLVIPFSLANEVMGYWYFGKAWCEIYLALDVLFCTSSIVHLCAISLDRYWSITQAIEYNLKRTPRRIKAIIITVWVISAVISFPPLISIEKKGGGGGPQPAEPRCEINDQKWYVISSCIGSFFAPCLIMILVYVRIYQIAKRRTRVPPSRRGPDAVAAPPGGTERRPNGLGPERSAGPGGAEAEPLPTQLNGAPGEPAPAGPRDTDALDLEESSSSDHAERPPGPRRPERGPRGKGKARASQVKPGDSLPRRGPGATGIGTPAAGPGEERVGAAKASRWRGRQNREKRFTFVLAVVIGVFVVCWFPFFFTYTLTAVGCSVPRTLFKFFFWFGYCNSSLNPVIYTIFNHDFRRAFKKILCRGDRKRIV

Experiment [2] addresses T2, 5-hydroxytryptamine receptor 1A (Homo sapiens, UniProt P08908).
T2 sequence (P08908 whole entry): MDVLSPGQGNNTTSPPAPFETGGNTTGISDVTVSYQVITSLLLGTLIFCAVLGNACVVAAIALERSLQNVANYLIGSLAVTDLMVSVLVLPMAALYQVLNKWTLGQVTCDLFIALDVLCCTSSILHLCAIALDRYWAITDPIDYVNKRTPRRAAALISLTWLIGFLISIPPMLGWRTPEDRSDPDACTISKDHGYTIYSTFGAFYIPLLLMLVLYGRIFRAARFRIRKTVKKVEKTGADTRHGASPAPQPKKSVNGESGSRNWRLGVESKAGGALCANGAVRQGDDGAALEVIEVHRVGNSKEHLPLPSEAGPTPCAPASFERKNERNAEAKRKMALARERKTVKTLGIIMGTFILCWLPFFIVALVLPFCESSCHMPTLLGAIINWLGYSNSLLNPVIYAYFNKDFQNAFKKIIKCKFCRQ

Experiment [3] concerns the target T3, Thromboxane A2 receptor (Homo sapiens, UniProt P21731).
T3 sequence (P21731 whole entry): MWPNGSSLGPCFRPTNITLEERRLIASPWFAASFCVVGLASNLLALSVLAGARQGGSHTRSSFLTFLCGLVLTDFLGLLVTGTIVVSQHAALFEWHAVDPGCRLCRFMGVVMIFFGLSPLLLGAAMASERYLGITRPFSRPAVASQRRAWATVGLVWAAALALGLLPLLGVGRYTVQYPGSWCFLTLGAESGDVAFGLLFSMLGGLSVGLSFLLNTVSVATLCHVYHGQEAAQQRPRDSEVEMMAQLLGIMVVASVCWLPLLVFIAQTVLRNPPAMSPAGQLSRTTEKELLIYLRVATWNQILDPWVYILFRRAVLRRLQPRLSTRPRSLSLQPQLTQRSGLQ
The format is functional, cell-based.

Experiment [4] addresses Prothrombin (Homo sapiens, UniProt P00734). It is filed as functional.
The target in experiment [5] is Sodium-dependent noradrenaline transporter (Homo sapiens, UniProt P23975).
For experiment [6], the target named is T4, Progesterone receptor (Homo sapiens, UniProt P06401).
T4 sequence (P06401 whole entry): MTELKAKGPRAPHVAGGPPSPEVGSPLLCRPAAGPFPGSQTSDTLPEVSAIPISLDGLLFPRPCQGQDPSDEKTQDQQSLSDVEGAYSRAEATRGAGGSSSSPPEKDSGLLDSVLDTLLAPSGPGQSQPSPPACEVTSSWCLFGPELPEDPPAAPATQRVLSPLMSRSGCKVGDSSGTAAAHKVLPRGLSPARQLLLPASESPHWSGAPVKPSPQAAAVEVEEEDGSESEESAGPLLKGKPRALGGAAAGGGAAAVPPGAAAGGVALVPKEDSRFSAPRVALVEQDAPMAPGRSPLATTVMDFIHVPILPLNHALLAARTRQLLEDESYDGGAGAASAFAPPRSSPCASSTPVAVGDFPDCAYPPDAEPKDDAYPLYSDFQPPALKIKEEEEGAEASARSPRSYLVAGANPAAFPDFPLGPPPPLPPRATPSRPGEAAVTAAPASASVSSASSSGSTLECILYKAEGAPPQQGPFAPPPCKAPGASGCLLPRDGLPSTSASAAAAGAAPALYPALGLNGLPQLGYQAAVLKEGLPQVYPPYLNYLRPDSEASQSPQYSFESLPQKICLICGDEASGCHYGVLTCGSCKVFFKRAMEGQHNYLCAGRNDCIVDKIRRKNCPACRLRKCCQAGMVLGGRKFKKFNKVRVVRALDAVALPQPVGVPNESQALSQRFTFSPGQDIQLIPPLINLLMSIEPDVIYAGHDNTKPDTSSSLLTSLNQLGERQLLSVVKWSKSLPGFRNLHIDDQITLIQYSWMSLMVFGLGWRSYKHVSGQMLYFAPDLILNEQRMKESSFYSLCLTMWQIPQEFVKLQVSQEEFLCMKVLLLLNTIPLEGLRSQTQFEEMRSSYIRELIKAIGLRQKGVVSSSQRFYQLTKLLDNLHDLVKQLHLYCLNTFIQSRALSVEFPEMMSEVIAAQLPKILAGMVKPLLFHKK

Experiment [7] has as its target T3, Thromboxane A2 receptor. It is filed as functional, cell-based. This is another data set of the same source.
Experiment [8] concerns the target 5-hydroxytryptamine receptor 2B (Homo sapiens, UniProt P41595). The format is functional, cell-based.
For experiment [9], the target named is Voltage-gated inwardly rectifying potassium channel KCNH2 (Homo sapiens, UniProt Q12809). The format is functional.
Experiment [10] deals with Acetylcholinesterase (Homo sapiens, UniProt P22303). It is filed as functional.
Experiment [11] deals with Prostaglandin G/H synthase 1 (Homo sapiens, UniProt P23219). The format is functional.
In experiment [12] the target is Histamine H3 receptor (Homo sapiens, UniProt Q9Y5N1).
The target of experiment [13] is Mu-type opioid receptor (Homo sapiens, UniProt P35372).
Experiment [14] addresses 3',5'-cyclic-AMP phosphodiesterase 4A (Homo sapiens, UniProt P27815). It is filed as functional.
Experiment [15] has as its target Sodium-dependent dopamine transporter (Homo sapiens, UniProt Q01959).
Experiment [16] concerns the target D(1A) dopamine receptor (Homo sapiens, UniProt P21728).
The target of experiment [17] is D(3) dopamine receptor (Homo sapiens, UniProt P35462).

SMILES strings stand for the structures. Some results are limits rather than exact numbers.
Note: assay procedure not described here.

Sodium-dependent noradrenaline transporter, sequence (P23975 whole entry): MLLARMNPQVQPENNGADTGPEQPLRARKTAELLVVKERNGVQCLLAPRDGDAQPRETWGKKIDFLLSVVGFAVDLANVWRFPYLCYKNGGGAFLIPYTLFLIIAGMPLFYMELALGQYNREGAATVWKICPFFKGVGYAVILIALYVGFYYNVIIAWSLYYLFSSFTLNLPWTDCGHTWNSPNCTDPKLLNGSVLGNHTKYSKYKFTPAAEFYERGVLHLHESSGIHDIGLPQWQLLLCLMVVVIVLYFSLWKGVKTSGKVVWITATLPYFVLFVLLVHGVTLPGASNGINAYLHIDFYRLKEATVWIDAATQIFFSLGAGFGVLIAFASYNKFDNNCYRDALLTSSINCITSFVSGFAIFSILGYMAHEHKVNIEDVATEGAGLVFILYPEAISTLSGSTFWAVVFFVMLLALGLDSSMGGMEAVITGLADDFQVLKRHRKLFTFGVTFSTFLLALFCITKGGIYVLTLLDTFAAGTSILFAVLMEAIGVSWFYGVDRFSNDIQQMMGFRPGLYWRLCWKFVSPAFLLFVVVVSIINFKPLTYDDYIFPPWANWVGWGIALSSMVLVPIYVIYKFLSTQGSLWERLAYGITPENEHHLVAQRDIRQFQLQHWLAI
5-hydroxytryptamine receptor 2B, sequence (P41595 whole entry): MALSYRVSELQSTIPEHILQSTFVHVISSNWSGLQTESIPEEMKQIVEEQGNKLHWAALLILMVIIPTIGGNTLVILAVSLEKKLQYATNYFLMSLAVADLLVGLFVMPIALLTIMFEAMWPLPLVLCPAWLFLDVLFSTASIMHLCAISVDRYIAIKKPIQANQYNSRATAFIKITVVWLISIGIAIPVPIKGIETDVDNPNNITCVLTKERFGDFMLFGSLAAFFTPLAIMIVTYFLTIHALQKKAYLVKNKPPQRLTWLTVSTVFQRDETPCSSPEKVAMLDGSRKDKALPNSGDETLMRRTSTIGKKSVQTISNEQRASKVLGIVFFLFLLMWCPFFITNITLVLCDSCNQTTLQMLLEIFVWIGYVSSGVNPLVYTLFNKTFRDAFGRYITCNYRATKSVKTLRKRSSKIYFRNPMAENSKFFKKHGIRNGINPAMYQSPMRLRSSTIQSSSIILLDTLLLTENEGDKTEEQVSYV
3',5'-cyclic-AMP phosphodiesterase 4A, sequence (P27815 whole entry): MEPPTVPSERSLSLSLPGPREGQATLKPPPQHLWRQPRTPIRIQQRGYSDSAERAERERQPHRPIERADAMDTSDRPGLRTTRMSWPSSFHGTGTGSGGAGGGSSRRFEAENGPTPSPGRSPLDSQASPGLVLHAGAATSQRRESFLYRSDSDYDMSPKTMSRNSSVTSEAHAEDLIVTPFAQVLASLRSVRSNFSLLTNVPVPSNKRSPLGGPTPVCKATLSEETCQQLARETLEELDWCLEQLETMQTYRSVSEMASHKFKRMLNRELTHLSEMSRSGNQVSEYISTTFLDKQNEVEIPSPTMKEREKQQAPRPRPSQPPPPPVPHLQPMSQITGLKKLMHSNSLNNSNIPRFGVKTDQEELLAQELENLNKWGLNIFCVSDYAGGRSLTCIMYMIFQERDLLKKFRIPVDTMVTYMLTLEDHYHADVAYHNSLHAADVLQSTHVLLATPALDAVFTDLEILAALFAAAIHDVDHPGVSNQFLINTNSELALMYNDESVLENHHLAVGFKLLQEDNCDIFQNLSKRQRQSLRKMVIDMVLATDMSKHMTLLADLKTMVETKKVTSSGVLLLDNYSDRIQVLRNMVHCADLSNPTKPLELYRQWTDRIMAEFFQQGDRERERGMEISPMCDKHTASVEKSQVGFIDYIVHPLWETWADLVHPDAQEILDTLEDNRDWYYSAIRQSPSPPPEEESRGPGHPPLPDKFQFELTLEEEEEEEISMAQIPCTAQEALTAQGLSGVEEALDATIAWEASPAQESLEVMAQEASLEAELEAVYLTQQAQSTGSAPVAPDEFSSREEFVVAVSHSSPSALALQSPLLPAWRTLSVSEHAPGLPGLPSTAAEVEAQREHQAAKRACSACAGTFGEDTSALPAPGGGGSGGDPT
Prostaglandin G/H synthase 1, sequence (P23219 whole entry): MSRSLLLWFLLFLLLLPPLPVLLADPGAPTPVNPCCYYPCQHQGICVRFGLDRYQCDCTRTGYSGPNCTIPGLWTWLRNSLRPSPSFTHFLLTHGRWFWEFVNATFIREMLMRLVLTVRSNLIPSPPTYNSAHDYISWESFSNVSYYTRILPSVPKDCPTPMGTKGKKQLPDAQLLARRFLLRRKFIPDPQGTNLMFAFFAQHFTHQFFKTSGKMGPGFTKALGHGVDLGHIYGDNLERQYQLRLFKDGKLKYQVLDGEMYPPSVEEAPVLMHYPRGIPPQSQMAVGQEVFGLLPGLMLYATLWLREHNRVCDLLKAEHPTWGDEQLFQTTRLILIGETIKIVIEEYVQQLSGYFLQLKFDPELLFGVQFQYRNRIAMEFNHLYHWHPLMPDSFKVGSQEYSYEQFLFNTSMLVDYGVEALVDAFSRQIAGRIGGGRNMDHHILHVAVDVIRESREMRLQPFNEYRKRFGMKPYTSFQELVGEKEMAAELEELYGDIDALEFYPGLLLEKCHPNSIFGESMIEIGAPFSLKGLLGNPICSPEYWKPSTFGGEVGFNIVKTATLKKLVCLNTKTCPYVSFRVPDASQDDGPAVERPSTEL
Acetylcholinesterase, sequence (P22303 whole entry): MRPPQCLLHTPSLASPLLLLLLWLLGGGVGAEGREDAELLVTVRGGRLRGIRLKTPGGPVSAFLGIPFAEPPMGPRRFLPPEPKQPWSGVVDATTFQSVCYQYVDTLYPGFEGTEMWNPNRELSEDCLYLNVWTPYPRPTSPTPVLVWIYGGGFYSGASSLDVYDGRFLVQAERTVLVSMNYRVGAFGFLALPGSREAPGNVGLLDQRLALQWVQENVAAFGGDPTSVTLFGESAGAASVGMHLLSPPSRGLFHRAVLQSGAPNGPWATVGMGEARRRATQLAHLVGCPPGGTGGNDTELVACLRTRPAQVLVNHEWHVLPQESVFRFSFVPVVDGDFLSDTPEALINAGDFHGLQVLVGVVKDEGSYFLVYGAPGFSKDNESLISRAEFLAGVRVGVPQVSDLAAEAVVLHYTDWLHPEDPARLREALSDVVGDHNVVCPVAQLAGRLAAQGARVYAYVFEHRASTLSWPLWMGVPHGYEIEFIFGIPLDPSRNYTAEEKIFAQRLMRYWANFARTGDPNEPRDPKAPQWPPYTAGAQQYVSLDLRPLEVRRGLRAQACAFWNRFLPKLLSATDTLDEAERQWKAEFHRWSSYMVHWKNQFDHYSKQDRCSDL
Sodium-dependent dopamine transporter, sequence (Q01959 whole entry): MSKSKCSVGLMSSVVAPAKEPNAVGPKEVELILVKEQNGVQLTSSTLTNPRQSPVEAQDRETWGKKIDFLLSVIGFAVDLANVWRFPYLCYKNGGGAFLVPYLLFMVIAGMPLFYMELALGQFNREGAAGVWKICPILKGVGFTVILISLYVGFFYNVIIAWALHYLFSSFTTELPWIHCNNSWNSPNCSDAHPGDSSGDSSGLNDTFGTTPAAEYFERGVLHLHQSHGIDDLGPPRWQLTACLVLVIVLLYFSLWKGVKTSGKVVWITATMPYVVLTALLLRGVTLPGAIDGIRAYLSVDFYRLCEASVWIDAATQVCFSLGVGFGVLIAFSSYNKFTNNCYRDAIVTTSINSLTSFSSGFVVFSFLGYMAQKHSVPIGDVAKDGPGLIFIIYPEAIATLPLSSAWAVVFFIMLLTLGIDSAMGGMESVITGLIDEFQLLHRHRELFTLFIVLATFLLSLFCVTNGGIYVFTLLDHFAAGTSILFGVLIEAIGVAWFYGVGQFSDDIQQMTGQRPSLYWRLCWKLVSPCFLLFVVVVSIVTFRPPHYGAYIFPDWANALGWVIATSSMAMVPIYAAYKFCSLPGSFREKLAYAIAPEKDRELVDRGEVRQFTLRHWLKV
D(1A) dopamine receptor, sequence (P21728 whole entry): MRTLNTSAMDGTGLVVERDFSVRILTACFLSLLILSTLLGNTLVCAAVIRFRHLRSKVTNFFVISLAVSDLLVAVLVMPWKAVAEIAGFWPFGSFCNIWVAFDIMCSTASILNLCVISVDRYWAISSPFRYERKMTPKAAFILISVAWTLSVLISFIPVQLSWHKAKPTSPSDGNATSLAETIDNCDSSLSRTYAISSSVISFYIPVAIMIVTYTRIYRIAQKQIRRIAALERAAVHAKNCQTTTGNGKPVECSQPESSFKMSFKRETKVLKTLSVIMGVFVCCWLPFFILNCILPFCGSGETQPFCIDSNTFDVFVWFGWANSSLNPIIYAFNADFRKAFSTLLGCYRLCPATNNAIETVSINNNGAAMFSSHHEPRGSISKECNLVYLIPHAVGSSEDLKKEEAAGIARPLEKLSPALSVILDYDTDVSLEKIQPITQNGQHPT
D(3) dopamine receptor, sequence (P35462 whole entry): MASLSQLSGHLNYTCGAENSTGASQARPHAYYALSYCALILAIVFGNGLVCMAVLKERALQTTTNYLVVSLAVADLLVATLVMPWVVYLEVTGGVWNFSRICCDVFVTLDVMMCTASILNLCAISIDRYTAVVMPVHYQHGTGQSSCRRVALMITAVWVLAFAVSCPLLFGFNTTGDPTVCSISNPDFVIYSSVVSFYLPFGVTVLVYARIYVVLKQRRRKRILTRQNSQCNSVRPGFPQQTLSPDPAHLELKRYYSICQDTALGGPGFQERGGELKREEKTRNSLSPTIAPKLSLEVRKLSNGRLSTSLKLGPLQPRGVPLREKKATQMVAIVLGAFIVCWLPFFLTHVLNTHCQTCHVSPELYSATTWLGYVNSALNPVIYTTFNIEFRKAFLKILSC

For the compound `C=C(C)CNc1ccc(C(C)C(=O)O)cc1` (centres undefined) [ALMINOPROFEN], the AC50 in experiment [1], in [2], in experiment [3], in experiment [4], in experiment [5] and in experiment [6] was above 30 µM throughout. Also, the AC50 in experiment [7], in [8], in experiment [9], in experiment [10], in [11] and in experiment [12] was above 30 µM each time. Besides, the AC50 in experiment [13], in experiment [14], in experiment [15], in experiment [16] and in [17] was above 30 µM in each case.
Consider `CC(C(=O)O)c1cccc(Oc2ccccc2)c1` (centres undefined) [FENOPROFEN], for which the concentration at half-maximal activity (AC50) in experiment [1], in [2], in [3], in [4], in experiment [5] and in experiment [6] was above 30 µM throughout. Also, the AC50 in experiment [7] was above 30 µM; in experiment [8], above 30 µM; in experiment [9], above 30 µM; in experiment [10] it was above 30 µM; in experiment [11], 1.52 µM; in experiment [12] it was above 30 µM. The AC50 in experiment [13], in experiment [14], in experiment [15], in experiment [16] and in experiment [17] was above 30 µM in each case.
For the compound `O=C(O)CN(CCN(CC(=O)O)CC(=O)O)CCN(CC(=O)O)CC(=O)O` [PENTETIC ACID], the AC50 is 1.32 µM in experiment [1]; above 30 µM in experiment [2]; above 30 µM in experiment [3]; above 30 µM in experiment [4]; 10.9 µM in experiment [5]; above 30 µM in [6]. Further, the AC50 in experiment [7] is above 30 µM; in experiment [8], above 30 µM; in [9] it was above 30 µM; in experiment [10], above 30 µM; in [11] it was above 30 µM; in experiment [12] it was 19.8 µM. Further, the AC50 in experiment [13] is above 30 µM; in experiment [14], above 30 µM; in experiment [15] it was 6.51 µM; in experiment [16], 8.71 µM; in [17] it was 2.26 µM.
With `C[N+](C)(C)CCOP(=O)(O)OP(=O)([O-])OC[C@H]1O[C@@H](n2ccc(N)nc2=O)[C@H](O)[C@@H]1O` [CITICOLINE], the AC50 in [1], in experiment [2], in [3], in [4], in experiment [5] and in experiment [6] was above 30 µM throughout. Also, the AC50 in experiment [7], in experiment [8], in experiment [9], in experiment [10], in experiment [11] and in experiment [12] was above 30 µM each time. The AC50 in experiment [13], in experiment [14], in [15], in experiment [16] and in [17] was above 30 µM throughout.
Consider `C=N[C@@H](C(=O)N[C@@H]1C(=O)N2[C@@H]1SC(C)(C)[C@@H]2C(=O)O)c1ccccc1` [METAMPICILLIN], for which the AC50 in experiment [1], in experiment [2], in experiment [3], in [4], in experiment [5] and in experiment [6] was above 30 µM throughout. The AC50 in experiment [7] was above 30 µM; in [8], above 30 µM; in [9], above 30 µM; in [10], above 30 µM; in experiment [11], 9.26 µM; in experiment [12] it was above 30 µM. For the same compound, the half-maximal activity concentration (AC50) in [13], in experiment [14], in [15], in experiment [16] and in experiment [17] was above 30 µM in each case.
Take `CC[C@H]1OC(=O)[C@H](C)[C@@H](O[C@H]2C[C@@](C)(OC)[C@@H](O)[C@H](C)O2)[C@H](C)[C@@H](O[C@@H]2O[C@H](C)C[C@H](N(C)C)[C@H]2O)[C@](C)(O)C[C@@H](C)[C@@H]2N[C@@H](COCCOC)O[C@H]([C@H]2C)[C@]1(C)O` [DIRITHROMYCIN]: the AC50 in experiment [1], in experiment [2], in experiment [3], in [4], in experiment [5] and in experiment [6] was above 30 µM throughout. In addition, the AC50 in experiment [7] was above 30 µM; in experiment [8] it was above 30 µM; in [9], above 30 µM; in [10], above 30 µM; in experiment [11], 9.63 µM; in experiment [12] it was above 30 µM. Also, the AC50 in experiment [13], in experiment [14], in experiment [15], in [16] and in experiment [17] was above 30 µM in each case.
As to `Nc1cccc2c1C(=O)N(C1CCC(=O)NC1=O)C2=O` (centres undefined) [POMALIDOMIDE], the AC50 in experiment [1], in experiment [2], in experiment [3], in experiment [4], in [5] and in experiment [6] was above 30 µM in each case. Further, the AC50 in experiment [7] is 26.7 µM; in [8], above 30 µM; in experiment [9] it was above 30 µM; in [10], above 30 µM; in experiment [11], above 30 µM; in experiment [12], above 30 µM. Further, the AC50 in experiment [13], in experiment [14], in [15], in [16] and in [17] was above 30 µM in each case.

As usually defined, the AC50 is the midpoint of the concentration-response curve, whichever way the signal moves. A higher AC50 goes with weaker potency.
